{"source": "patent US11261215B2", "about": "“Somatostatin prodrugs” (YISSUM RESEARCH DEVELOPMENT COMPANY OF THE HEBREW …, priority 2017, dated 2022)", "origin": "cited, not measured here", "key": {"somatostatin receptors": {"tested_on": "somatostatin receptors", "conditions": "cited from earlier work"}, "[1]": {"tested_on": "GH, glucagon and insulin secretion", "conditions": "cited from earlier work"}, "[2]": {"tested_on": "amylase and lipase release from the pancreas", "conditions": "in vivo; cited from earlier work"}, "SSTR5": {"biological_target": "SSTR5 (Homo sapiens, UniProt P35346)", "sequence (P35346 whole entry, species assumed)": "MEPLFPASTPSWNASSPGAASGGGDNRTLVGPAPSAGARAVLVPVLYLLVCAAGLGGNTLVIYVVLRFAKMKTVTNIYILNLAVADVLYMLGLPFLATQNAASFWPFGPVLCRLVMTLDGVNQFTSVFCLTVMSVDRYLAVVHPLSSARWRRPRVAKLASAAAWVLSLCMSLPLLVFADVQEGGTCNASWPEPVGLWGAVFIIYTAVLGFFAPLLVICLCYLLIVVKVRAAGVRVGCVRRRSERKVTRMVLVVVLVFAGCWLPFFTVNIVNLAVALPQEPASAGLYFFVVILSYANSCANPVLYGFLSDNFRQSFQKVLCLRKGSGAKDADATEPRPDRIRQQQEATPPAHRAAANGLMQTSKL", "conditions": "cited from earlier work"}, "[3]": {"conditions": "rats, oral administration; cited from earlier work"}}, "note": "Numbered stars: 1 amine (or outer) side, 2 acyl side, 3 side chain; on linkers, the order of the positions; unused ones are H or OH. Bridge positions count the residues as written; N and C are the ends. Square brackets hold non-standard residues; d marks the D form. Ends that are not written are not given here. PheC3 = Phe building unit, N-alpha-omega-functionalized derivative for backbone cyclization; N(2-aminoethyl)Phe = O=C([C@H](Cc1ccccc1)N(CCN[*:3])[*:1])[*:2]; dNMeW = CN[C@H](Cc1c[nH]c2ccccc12)C(=O)O; NMeF = CN[C@@H](Cc1ccccc1)C(=O)O; NMeK = CN[C@@H](CCCCN)C(=O)O"}
{"substance": "GABA-Phe-Trp-DTrp-Lys-Thr-Phe-GlyC3-NH2 (XFWWKTFG; not fully specified; GABA, backbone cyclized, C-terminal amide; MOD_RES (1)..(1) 4Abu, GABA; MOD_RES (1)..(8) backbone-to-end cyclization between the N-alpha-omega-functionalized derivative of GlyC3 and the N-terminus; MOD_RES (4)..(4) D-Trp; MOD_RES (8)..(8) AMIDATION; MOD_RES (8)..(8) GlyC3 building unit) [PTR-3173]", "values": [{"measurement": "selectivity toward the somatostatin receptors", "setting": "somatostatin receptors", "result": "selective towards the SSTR2, SSTR4 and SSTR5"}, {"measurement": "effect on insulin secretion", "setting": "[1]; at physiological concentrations", "result": "no effect"}, {"measurement": "GH:insulin potency ratio", "setting": "[1]; in vivo", "result": "> 10,000"}, {"measurement": "potency in the in vivo inhibition of GH relative to that of glucagon", "setting": "[1]; in vivo", "result": 1000, "unit": "fold"}]}
{"substance": "PheC3-Cys-Phe-DTrp-Lys-Thr-Cys-Phe-PheN3-X (FCFWKTCFF; not fully specified; backbone cyclized; MOD_RES (1)..(1) PheC3 building unit; MOD_RES (1)..(9) backbone cyclization between the N-alpha-omega- functionalized derivative of X1 and the N-alpha-omega- functionalized derivative of X9; DISULFID (2)..(7) bridge; MOD_RES (4)..(4) D-Trp; MOD_RES (9)..(9) PheN3 building unit; MOD_RES (9)..(9) AMIDATION) [PTR-3205]", "values": [{"measurement": "selectivity toward the somatostatin receptors", "setting": "somatostatin receptors", "result": "selective towards SSTR2"}]}
{"substance": "PheN2-Tyr-DTrp-Lys-Val-PheC3-Thr-NH2 ([N(2-aminoethyl)Phe]Y[dW]KV[PheC3]T-NH2; bridge 1-6; not fully specified (bridges); printed as PheN2-Tyr-DTrp-Lys-Val-PheC3-Thr-NH2) [PTR-3046]", "values": [{"measurement": "selectivity toward the somatostatin receptors", "setting": "somatostatin receptors", "result": "selective toward the SSTR5"}, {"measurement": "GH or glucagon release", "setting": "[1]; in vivo", "result": "without inhibiting"}, {"measurement": "bombesin- and caerulein-induced amylase and lipase release from the pancreas", "setting": "[2]", "result": "inhibits"}, {"measurement": "IC50", "setting": "SSTR5", "result": "nanomolar range"}]}
{"substance": "c(PF(NMe)w(NMe)KT(NMe)F) (cyclo(PF[dNMeW][NMeK]T[NMeF]); SMILES C[C@@H](O)[C@@H]1NC(=O)[C@H](CCCCN)N(C)C(=O)[C@@H](Cc2c[nH]c3ccccc23)N(C)C(=O)[C@H](Cc2ccccc2)NC(=O)[C@@H]2CCCN2C(=O)[C@H](Cc2ccccc2)N(C)C1=O) [Somato8]", "values": [{"measurement": "calculated absolute oral bioavailability", "setting": "[3]", "result": "~10", "unit": "%"}]}
